Results from patent US12110293B2, “Substituted triazolo quinoxaline derivatives” (GRÜNENTHAL GMBH, priority 2018, dated 2024).

Molecular target: T1, glucocorticoid receptor (Homo sapiens, UniProt P04150)
T1 construct: expressed in transfected cells
T1 sequence (P04150 524-758 limits assumed): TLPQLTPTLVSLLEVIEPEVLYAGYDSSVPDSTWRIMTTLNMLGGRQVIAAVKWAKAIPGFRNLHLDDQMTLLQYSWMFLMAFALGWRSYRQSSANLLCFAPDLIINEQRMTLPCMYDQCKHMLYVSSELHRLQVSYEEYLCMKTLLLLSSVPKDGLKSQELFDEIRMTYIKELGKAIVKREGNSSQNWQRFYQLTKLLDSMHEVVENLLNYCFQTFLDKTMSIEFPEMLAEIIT
Test: Agonistic mode of action on the glucocorticoid receptor (CHO-Gal4/GR luciferase reporter cell line)
Format: cell-based
Settings: range class observed in the agonistic assay or the antagonistic assay (CHO-Gal4/GR reporter cells); table does not say which mode applies per example
How it was run: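 Agonism measured as dose-dependent luciferase luminescence (FLIPR Tetra) from a GAL4-UAS reporter driven by GAL4 DBD fused to GR ligand-binding domain in stable CHO cells. Eight half-log doses, 10 μM to 0.003 μM final in 0.5% DMSO, quadruplicate, on cells seeded 24 h earlier at 5000/well; EC50 derived.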

SMILES	IC50 or EC50 (agonist or antagonist mode not specified) [nM]
Cc1nnc2n1-c1c(cc(Cl)c(-c3cccc4c3ccn4S(C)(=O)=O)c1F)NC2(C)C [Example 284, 7-Chloro-9-fluoro-1,4,4-trimethyl-8-(1-methylsulfonyl-1H-indol-4-yl)-5H-[1,2,4]triazolo[4,3-a]quinoxaline]	100 to 1000
Cc1c(-c2cccc3c2ccn3C)c(Cl)cc2c1-n1c(C)nnc1C(C)(C)N2 [Example 488, 7-Chloro-1,4,4,9-tetramethyl-8-(1-methyl-1H-indol-4-yl)-5H-[1,2,4]triazolo[4,3-a]quinoxaline]	100 to 1000
CC#Cc1c[nH]c2c(-c3c(F)cc4c(c3C)-n3c(C)nnc3C(C)(C)N4)cccc12 [Example 28, 7-fluoro-1,4,4,9-tetramethyl-8-(3-(prop-1-yn-1-yl)-1H-indol-7-yl)-4,5-dihydro-[1,2,4]triazolo[4,3-a]quinoxaline]	< 100
Cc1nnc2n1-c1c(cc(F)c(-c3cc(Cl)cc4[nH]ccc34)c1F)NC2(C)C [Example 511, 8-(6-Chloro-1H-indol-4-yl)-7,9-difluoro-l,4,4-trimethyl-5H-[1,2,4]triazolo[4,3-a]quinoxaline]	< 100
Cc1cc2c(c(C)c1-c1cccc3c(C)c[nH]c13)-n1c(C)nnc1C(C)(C)N2 [Example 356, 1,4,4,7,9-Pentamethyl-8-(3-methyl-1H-indol-7-yl)-5H-[1,2,4]triazolo[4,3-a]quinoxaline]	< 100
Cc1cc(-c2c(F)cc3c(c2C(F)(F)F)-n2c(C)nnc2C(C)(C)N3)c2ccn(S(C)(=O)=O)c2c1 [Example 476, 7-Fluoro-1,4,4-trimethyl-8-(6-methyl-1-methylsulfonyl-1H-indol-4-yl)-9-(trifluoromethyl)-5H-[1,2,4]triazolo [4,3-a]quinoxaline]	100 to 1000
Cc1c[nH]c2c(-c3c(F)cc4c(c3F)-n3c(Cc5cccnc5)nnc3C(C)(C)N4)cc(F)cc12 [Example 73, 7,9-Difluoro-8-(5-fluoro-3-methyl-1H-indol-7-yl)-4,4-dimethyl-1-(pyridin-3-yl-methyl)-5H-[1,2,4]triazolo[4,3-a]quinoxaline]	100 to 1000
CCc1nnc2n1-c1c(cc(F)c(-c3cccc4c(C#N)c[nH]c34)c1F)NC2(C)C [Example 12, 7-(T-ethyl-7,9-difluoro-4,4-dimethyl-4,5-dihydro-[1,2,4]triazolo[4,3-a]quinoxalin-8-yl)-1H-indole-3-carbonitrile]	1000 to 15000
Cc1c(-c2cc(F)cc3c(C)c[nH]c23)c(OC(F)(F)F)cc2c1-n1c(C)nnc1C(C)(C)N2 [Example 406, 8-(5-Fluoro-3-methyl-1H-indol-7-yl)-1,4,4,9-tetramethyl-7-(trifluoromethyloxy)-5H-[1,2,4]triazolo[4,3-a]quinoxaline]	100 to 1000
Cc1nnc2n1-c1c(cc(F)c(-c3ccc(F)c4c3ccn4S(C)(=O)=O)c1C(F)(F)F)NC2(C)C [Example 484, 7-Fluoro-8-(7-fluoro-1-methyl-sulfonyl-1H-indol-4-yl)-1,4,4-trimethyl-9-(trifluoromethyl)-5H-[1,2,4]triazolo[4,3-a]quinoxaline]	100 to 1000
COCCn1ccc2c(-c3c(OC)cc4c(c3F)-n3c(C)nnc3C(C)(C)N4)cccc21 [Example 288, 9-Fluoro-7-methoxy-8-[1-(2-methoxy-ethyl)-1H-indol-4-yl]-1,4,4-trimethyl-5H-[1,2,4]triazolo[4,3-a]quinoxaline]	1000 to 15000
CCc1nnc2n1-c1c(cc(F)c(-c3cc(F)cc4c3cnn4S(C)(=O)=O)c1C)NC2(C)C [Example 348, 1-Ethyl-7-fluoro-8-(6-fluoro-1-methylsulfonyl-1H-indazol-4-yl)-4,4,9-trimethyl-5H-[1,2,4]triazolo [4,3-a]quinoxaline]	1000 to 15000
Cc1nnc2n1-c1c(cc(F)c(-c3c(F)ccc4c3ccn4S(C)(=O)=O)c1F)NC2(C)C [Example 224, 7,9-Difluoro-8-(5-fluoro-1-methylsulfonyl-1H-indol-4-yl)-1,4,4-trimethyl-5H-[1,2,4]triazolo[4,3-a]quinoxaline]	100 to 1000
Cc1c(-c2ccc(F)c3[nH]ncc23)c(F)cc2c1-n1c(C)nnc1C(C)(C)N2 [Example 524, 7-Fluoro-8-(7-fluoro-1H-indazol-4-yl)-1,4,4,9-tetramethyl-5H-[1,2,4]triazolo[4,3-a]quinoxaline]	100 to 1000
Cc1c(-c2cccc3c(C4CCOC4)c[nH]c23)c(F)cc2c1-n1c(C)nnc1C(C)(C)N2 (centres unmarked) [Example 42, 7-fluoro-1,4,4,9-tetramethyl-8-(3-(tetrahydrofuran-3-yl)-1H-indol-7-yl)-4,5-dihydro-[1,2,4]triazolo[4,3-a]quinoxaline]	< 100
Cc1nnc2n1-c1c(ccc(-c3cc(F)cc4c3ccn4C)c1C(F)(F)F)NC2(C)C [Example 522, 8-(6-Fluoro-1-methyl-1H-indol-4-yl)-1,4,4-trimethyl-9-(trifluoro-methyl)-5H-[1,2,4]triazolo[4,3-a] quinoxaline]	100 to 1000
Cc1cc2c(c(F)c1-c1cccc3c(C)c[nH]c13)-n1c(C)nnc1C(C)(C)N2 [Example 359, 9-Fluoro-1,4,4,7-tetramethyl-8-(3-methyl-1H-indol-7-yl)-5H-[1,2,4]triazolo[4,3-a]quinoxaline]	100 to 1000
Cc1nnc2n1-c1c(cc(F)c(-c3cccc4c3cc(C(F)(F)F)n4C3CC3)c1F)NC2(C)C [Example 312, 8-[1-Cyclopropyl-2-(trifluoromethyl)-1H-indol-4-yl]-7,9-difluoro-1,4,4-trimethyl-5H-[1,2,4]triazolo[4,3-a]quinoxaline]	100 to 1000
Cc1nnc2n1-c1c(ccc(-c3cc(F)cc4c3ccn4S(C)(=O)=O)c1C(F)(F)F)NC2(C)C [Example 499, 8-(6-Fluoro-1-methylsulfonyl-1H-indol-4-yl)-1,4,4-trimethyl-9-(trifluoromethyl)-5H-[1,2,4]triazolo[4,3-a]quinoxaline]	100 to 1000
COCCn1ccc2c(-c3c(F)cc4c(c3OC)-n3c(C)nnc3C(C)(C)N4)cc(F)cc21 [Example 351, 7-Fluoro-8-[6-fluoro-1-(2-methoxy-ethyl)-1H-indol-4-yl]-9-methoxy-1,4,4-trimethyl-5H-[1,2,4]triazolo [4,3-a]quinoxaline]	< 100
Cc1c(-c2cc(F)cc3c(CC(F)(F)F)c[nH]c23)c(F)cc2c1-n1c(C)nnc1C(C)(C)N2 [Example 23, 7-fluoro-8-(5-fluoro-3-(2,2,2-trifluoroethyl)-1H-indol-7-yl)-1,4,4,9-tetramethyl-4,5-dihydro-[1,2,4]triazolo[4,3-a]quinoxaline]	< 100
Cc1c(-c2cccc3c(C)c[nH]c23)c(OC(F)(F)F)cc2c1-n1c(C)nnc1C(C)(C)N2 [Example 405, 1,4,4,9-Tetramethyl-8-(3-methyl-1H-indol-7-yl)-7-(trifluoromethyloxy)-5H-[1,2,4]triazolo[4,3-a]quinoxaline]	100 to 1000
COc1c(-c2cc(F)cc3[nH]ccc23)c(F)cc2c1-n1c(C)nnc1C(C)(C)N2 [Example 468, 7-Fluoro-8-(6-fluoro-1H-indol-4-yl)-9-methoxy-1,4,4-trimethyl-5H-[1,2,4]triazolo[4,3-a]quinoxaline]	< 100
CCc1nnc2n1-c1c(cc(F)c(-c3cccc4c3cnn4C3CC3)c1C)NC2(C)C [Example 242, 8-(1-Cyclopropyl-1H-indazol-4-yl)-1-ethyl-7-fluoro-4,4,9-trimethyl-5H-[1,2,4]triazolo[4,3-a]quinoxaline]	1000 to 15000
COc1c(-c2cccc3c2ccn3CC(F)F)c(F)cc2c1-n1c(C)nnc1C(C)(C)N2 [Example 397, 8-[1-(2,2-Difluoro-ethyl)-1H-indol-4-yl]-7-fluoro-9-methoxy-1,4,4-trimethyl-5H-[1,2,4]triazolo[4,3-a]quinoxaline]	100 to 1000
CC#Cc1c[nH]c2c(-c3c(F)cc4c(c3C)-n3c(CO)nnc3C(C)(C)N4)cc(F)cc12 [Example 77, (7-fluoro-8-(5-fluoro-3-(prop-1-yn-1-yl)-1H-indol-7-yl)-4,4,9-trimethyl-4,5-dihydro-[1,2,4]triazolo[4,3-a]quinoxalin-1-yl)methanol]	100 to 1000
Cc1c(-c2cc(F)cc3c2ccn3S(C)(=O)=O)c(C(F)(F)F)cc2c1-n1c(C)nnc1C(C)(C)N2 [Example 83, 8-(6-Fluoro-1-methylsulfonyl-1H-indol-4-yl)-1,4,4,9-tetramethyl-7-(trifluoromethyl)-5H-[1,2,4]triazolo[4,3-a]quinoxaline]	1000 to 15000
COc1c(-c2cc(F)cc3c2cnn3S(C)(=O)=O)c(F)cc2c1-n1c(C)nnc1C(C)(C)N2 [Example 339, 7-Fluoro-8-(6-fluoro-1-methylsulfonyl-1H-indazol-4-yl)-9-methoxy-1,4,4-trimethyl-5H-[1,2,4]triazolo[4,3-a]quinoxaline]	100 to 1000
Cc1nnc2n1-c1c(cc(F)c(-c3cccc4c3ccn4S(C)(=O)=O)c1C1CC1)NC2(C)C [Example 462, 9-Cyclopropyl-7-fluoro-1,4,4-trimethyl-8-(1-methylsulfonyl-1H-indol-4-yl)-5H-[1,2,4]triazolo [4,3-a]quinoxaline]	< 100
